Measurements published in patent US20050222218A1, “Screening method and compounds for treating friedreich ataxia” (priority 2002, published 2005).
“Also recorded” adds a separate entry of the source. Like-named read-outs stand apart in the source and are kept apart here.

Columns and labels:
Format in all cases: cell-based, human
[1] = system: FRDA fibroblasts; experiment: Rescue of FRDA fibroblasts from BSO-induced cell death (CalceinAM/ethidium homodimer cell viability)
Method: Friedreich Ataxia primary culture fibroblast cell lines F1 and control fibroblast line C1 were provided by the Insel-Spital Bern (Switzerland), FRDA line F3 was provided by Hopital Necker, Paris (France), FRDA lines F2 and control lines C2 and C3 were obtained from Coriell Cell Repositories (Camden, N.J.; catalog numbers GM04078, GM08402 and GM08399 respectively). Cells were grown in a humidified atmosphere supplemented with 5% CO2. For experiments, the cells were trypsinized and resuspended at a density of 40000 cells/ml in growth medium consisting of 25% (v/v) M199 EBS and 64% (v/v) MEM EBS without phenol red (Bioconcept, Allschwil, Switzerland) supplemented with 10% (v/v) fetal calf serum (PAA Laboratories, Linz, Austria), 100 U/ml penicillin, 100 μg/ml streptomycin (PAA Laboratories, Linz, Austria), 10 μg/ml insulin (Sigma, Buchs, Switzerland), 10 ng/ml EGF (Sigma, Buchs, Switzerland) and 10 ng/ml bFGF (PreproTech, Rocky Hill, N.J.) and 2 mM glutamine (Sigma, Buchs, Switzerland).
The cells were seeded in 96-well plates at a density of 4000 cells/well. They were incubated in the presence of various concentrations of L-buthionine-(S,R)-sulfoximine (BSO), an inhibitor of γ-glutamyl cysteine synthase (EC: 6.3.2.2), the rate limiting enzyme in the biosynthesis of glutathione. Cell viability was measured when the first signs of toxicity appeared in the controls (typically after 12 to 48 h). The cells were stained for 60 min at room temperature in PBS with 1.2 μM CalceinAM and 4 μM Ethidium homodimer (Live/Dead assay, Molecular Probes, Eugene, Oreg.). The plates were washed twice with PBS and fluorescence intensity was measured with a Gemini Spectramax XS spectrofluorimeter (Molecular Devices, Sunnyvale, Calif.) using excitation and emission wavelengths of 485 nm and 525 nm respectively. Live cells imaging was performed with a Zeiss Axiovert 135M fluorescence microscope equipped with a cooled CCD camera (Sensicam, PCO Computer Optics, Kelheim, FRG). Image acquisition was performed with the ImagePro Plus software (Media Cybermetics, Silver Spring, Md.).
[…] Cell viability was measured as described in Example 2.
Cell viability was measured after a further 48 hours incubation as described in Example 2. EC50 values were deduced from the dose-response curves. The natural CoQ10 was not active in this assay (Table 1). However, a possible bioavailability problem with this molecule due to its 50 carbon atom side chain can not be ruled out. CoQ1 had EC50 values similar to Idebenone (0.2 μM). CoQ2 performed better than Idebenone, with an EC50 value of 30 nM. […] Decylubiquinone was almost as effective as CoQ2, with an EC50 of 40 nM.
FRDA cells were incubated with increasing concentrations of sodium selenite (prepared as a stock solution 5 mM in PBS) for 24 hours, then subjected to BSO stress. Cell viability was measured as described in Example 2.
Based on the previous results, the hypothesis whether small-molecules GPX mimetics could rescue the cell death phenotype of FRDA cells when exposed to BSO was tested. FRDA cells were incubated for 24 hours in the presence of Ebselen, a GPX mimetic (Muller, A., et al., “A novel biologically active seleno-organic compound—I. Glutathione peroxidase-like activity in vitro and antioxidant capacity of PZ 51 (Ebselen)”, Biochem Pharmacol, 33, 3235-9., (1984)) and then subjected to 1 mM BSO treatment.
FRDA cells were incubated in the presence of a number of GPX mimetics. Two classes of molecules (FIG. 7) were evaluated: monoselenides (compound number 4, 5 and 8) and diselenides (compound number 1-3, 6, 7, 9-16). Dose-response curves were obtained for each molecule. From the dose-response curves not only the EC50, but also the concentration range for which a molecule produced at least 50% cell survival upon BSO challenge was calculated (FIG. 8).
GPX mimetics were tested as described in Example 3. Dose-response curves were obtained for all compounds tested. […]

[2] = system: GPX enzymatic activity in FRDA cells; experiment: Glutathione peroxidase activity in FRDA cell extracts
Method: (§1) Control and FRDA cells (5×10^5 cells grown in 10 cm dishes) were preincubated with sodium selenite (500 nM) for 24 hours and then subjected to 1 mM BSO treatment for 24 hours. Total cell extracts were used to measure glutathione content, glutathione peroxidase activity and glutathione-S-transferase activity.
(§2) To determine the glutathione peroxidase activity, cell extracts obtained for total GSH measurements were adjusted with PBS to a final protein concentration of 1.85 mg/ml. Enzymatic activity was measured with the Glutathione peroxidase cellular activity assay kit (Sigma, St Louis, Mo.) essentially according to the instructions of the manufacturer: Enzymatic activity was measured with 40 μg total protein extract in a final reaction volume of 100 μl. NADPH consumption was measured by the decrease in NADPH fluorescence at 445 nm. All measurements were done in triplicate in 96-well plates with a Gemini spectrofluorimeter using excitation and emission wavelengths of 340 nm and 445 nm respectively. Glutathione-S-transferase activity was determined in the same way as the glutathione content, except that the assay was performed in the presence of an excess of glutathione (1 mM) instead of an excess of exogenous glutathione-S-transferase. Because the BSO treatment is known to deplete cellular (GSH) levels, intracellular GSH concentrations were measured first. Any difference in basal glutathione levels between the two cell lines that were tested were not observed (FIG. 4, panel A). […] (FIG. 4, panel A). From this, it was concluded that the GSH levels per se are not responsible for the observed difference in phenotype between the two cell types. […] Therefore, GPX enzymatic activity in extracts from both cell types was compared. This measurement is based on the recycling of oxidized glutathione generated by GPX, using tert-butyl hydroperoxide as substrate. Oxidized glutathione is reduced by an excess exogenous glutathione reductase that will consume a corresponding amount of NADPH that is then measured by fluorescence. […]

[3] = system: GST activity in FRDA cells; experiment: Glutathione-S-transferase activity in FRDA cell extracts; settings: 500 nM sodium selenite
Method: as §1
(§3) To determine the glutathione peroxidase activity, cell extracts obtained for total GSH measurements were adjusted with PBS to a final protein concentration of 1.85 mg/ml. Enzymatic activity was measured with the Glutathione peroxidase cellular activity assay kit (Sigma, St Louis, Mo.) essentially according to the instructions of the manufacturer: Enzymatic activity was measured with 40 μg total protein extract in a final reaction volume of 100 μl. NADPH consumption was measured by the decrease in NADPH fluorescence at 445 nm. […] Glutathione-S-transferase activity was determined in the same way as the glutathione content, except that the assay was performed in the presence of an excess of glutathione (1 mM) instead of an excess of exogenous glutathione-S-transferase. Because the BSO treatment is known to deplete cellular (GSH) levels, intracellular GSH concentrations were measured first. […] Oxidized glutathione is reduced by an excess exogenous glutathione reductase that will consume a corresponding amount of NADPH that is then measured by fluorescence. […]

[4] = system: GST activity in control cells; experiment: Glutathione-S-transferase activity in control cell extracts; settings: 500 nM sodium selenite or 1 mM BSO
Method: as §1, §3

[5] = system: FRDA fibroblasts; experiment: Rescue of FRDA fibroblasts from BSO-induced cell death (CalceinAM/ethidium homodimer cell viability); settings: no preincubation
[6] = system: intracellular GSH in control and FRDA cells; experiment: Intracellular glutathione content (monochlorobimane method)
Method: as §1
To determine the glutathione content, cells were trypsinized, washed twice with PBS and snap frozen in 100 μl PBS. Cells were lysed in PBS supplemented with a protease inhibitor cocktail (Complete, Roche Diagnostics, Rotkreuz, Switzerland) by 4 freeze/thaw cycles. Total protein content was measured with the BioRad protein assay (BioRad, Hercules, Calif.) using calibrated bovine serum albumin solutions as standards (Pierce). Reduced glutathione content was measured essentially as described (Kamencic, H., et al., Monochlorobimane fluorometric method to measure tissue glutathione, Anal Biochem, 286, 35-7., (2000)) with a final monochlorobimane (mClB) (Molecular Probes, Eugene, Oreg.) concentration of 25 μM. The GSH-mClB adduct fluorescence was measured with a Gemini spectrofluorimeter using excitation and emission wavelengths of 380 nm and 470 nm respectively. Known amounts of reduced glutathione were used as standards.

[7] = system: GPX enzymatic activity in control cells; experiment: Glutathione peroxidase activity in control cell extracts
Method: as §1, §2

[8] = system: control fibroblasts; experiment: BSO sensitivity of control fibroblasts (cell viability)
Method: (§4) Friedreich Ataxia primary culture fibroblast cell lines F1 and control fibroblast line C1 were provided by the Insel-Spital Bern (Switzerland), FRDA line F3 was provided by Hopital Necker, Paris (France), FRDA lines F2 and control lines C2 and C3 were obtained from Coriell Cell Repositories (Camden, N.J.; catalog numbers GM04078, GM08402 and GM08399 respectively). Cells were grown in a humidified atmosphere supplemented with 5% CO2. […]
(§5) The cells were seeded in 96-well plates at a density of 4000 cells/well. […] Cell viability was measured when the first signs of toxicity appeared in the controls (typically after 12 to 48 h). […] The plates were washed twice with PBS and fluorescence intensity was measured with a Gemini Spectramax XS spectrofluorimeter (Molecular Devices, Sunnyvale, Calif.) using excitation and emission wavelengths of 485 nm and 525 nm respectively. Live cells imaging was performed with a Zeiss Axiovert 135M fluorescence microscope equipped with a cooled CCD camera (Sensicam, PCO Computer Optics, Kelheim, FRG). […]

[9] = system: FRDA fibroblasts; experiment: BSO sensitivity of FRDA fibroblasts (cell viability)
Method: as §4, §5

[10] = 500 nM sodium selenite, then 1 mM BSO
[11] = Homo sapiens, Fibroblast, Table 1, 24 h preincubation, 1 mM BSO, viability after further 48 h, read-out: EC50
[12] = FRDA cells preincubated 24 h with compound, then 1 mM BSO, read-out: EC50 value, prevention of cell death

With COC1=C(OC)C(=O)C(C)=CC1=O [CoQ0] the “activity in rescuing FRDA cells from BSO (in words)” value ([1]; 24 h preincubation, 1 mM BSO) was “inactive; also recorded: not active”.

For O=[Se]([O-])[O-].[Na+].[Na+] [sodium selenite], the “concentration that protected the cells fully” value ([1]; 24 h preincubation, then BSO) was 200 nM, the “effect of concentrations higher than 200 nM” value ([1]; 24 h preincubation, then BSO) was “enhanced cell growth” and the “increase in basal GPX enzyme activity” value ([2]; 500 nM sodium selenite, no BSO) was 50%. The “factor of increase in GPX activity” value [2, 10] was 3, the “effect on GST activity” value [3] was “slightly reduces” and the “effect on GST activity” value [4] was “neither modulated”. For the same molecule, the “protection when added at the same time as BSO” value [5] was “did not protect”, the “effect of selenium preincubation on BSO glutathione depletion” value ([6]; 500 nM sodium selenite 24 h, then 1 mM BSO 24 h) was “did not prevent the glutathione depletion” and the “effect on basal GPX activity” value ([7]; 500 nM sodium selenite, no BSO) was “not enhanced”. The “effect on GPX activity under BSO treatment” value [7, 10] was “prevented the enzyme activity loss”.

CCCCS(=N)(=O)CCC(N)C(=O)O [BSO, L-buthionine-(S,R)-sulfoximine] was tested, and the “viability compared to untreated controls (average)” value ([8]; 1 mM BSO, control cell lines C1-C3) was 60%, the “BSO concentration giving slight decrease in cell density” value ([8]; overnight exposure) was 100 µM and the “viability compared to untreated controls” value ([9]; 1 mM BSO, FRDA cell lines F1-F3) was “less than 10%”. The “BSO concentration giving marked reduction in cell titer” value ([9]; overnight exposure) was 4 µM, the “effect of BSO on GPX enzyme activity” value ([2]; 1 mM BSO 24 h, no selenium) was “small decrease in enzyme activity” and the “effect on GST activity” value [4] was “neither modulated”. For the same molecule, the “effect of BSO on glutathione levels” value ([6]; 1 mM BSO 24 h, both cell types) was “reduction in glutathione levels” and the “effect of BSO on GPX enzyme activity” value ([7]; 1 mM BSO 24 h, no selenium) was “small decrease in enzyme activity”.

Work on Cc1c(C)c2c(c(C)c1O)CCC(C)(C(=O)O)O2 (stereo not shown) [Trolox, 6-hydroxy-2,5,7,8-tetramethylchroman-2-carboxylic acid] yielded a viability at 25 µM ([1]; Homo sapiens, Fibroblast, read-out: cell viability preserved) of 60% and a cell viability ([1]; concentrations higher than 25 μM, 1 mM BSO) of 55%.

With COC1=C(OC)C(=O)C(CCCCCCCCCCO)=C(C)C1=O [Idebenone, 2,3-dimethoxy-5-methyl-6(10-hydroxydecyl)-1,4-benzoquinone] the “rescue effect at the highest concentration tested” value ([1]; 50 μM compound, 1 mM BSO) was “slightly diminished”, the “appearance of treated cells upon microscopic examination” value ([1]; 1 mM BSO + 5 μM Idebenone, CalceinAM/ethidium homodimer) was “undistinguishable from untreated cells” and the “concentration at which full rescue was observed” value ([1]; 24 h preincubation, 1 mM BSO) was 2 µM. It also gave an EC50 ([1]; Homo sapiens, Fibroblast, FRDA cells preincubated 24 h with compound, then 1 mM BSO, read-out: EC50 value, prevention of cell death) of 0.5 µM and an EC50 [1, 11] of 0.5 µM.

COC1=C(OC)C(=O)C(C/C=C(\C)CCC=C(C)C)=C(C)C1=O [CoQ2] showed an EC50 ([1]; FRDA cells preincubated 24 h with compound, then 1 mM BSO, viability after further 48 h, read-out: EC50 value, rescue of FRDA cell death) of 0.03 µM.

For COC1=C(OC)C(=O)C(C/C=C(\C)CC/C=C(\C)CC/C=C(\C)CC/C=C(\C)CC/C=C(\C)CC/C=C(\C)CC/C=C(\C)CC/C=C(\C)CC/C=C(\C)CCC=C(C)C)=C(C)C1=O [CoQ10], the “activity in rescuing FRDA cells from BSO (in words)” value ([1]; 24 h preincubation, 1 mM BSO) was “not active; also recorded: did not reach the 50% cell viability rescue” and the EC50 ([1]; Table 1, 24 h preincubation, 1 mM BSO, viability after further 48 h, read-out: EC50) was over 50 µM.

With CoQ1 the EC50 [1, 12] was 0.2 µM.

In the case of CCCCCCCCCCC1=C(C)C(=O)C(OC)=C(OC)C1=O [Decylubiquinone, 2,3-Dimethoxy-5-methyl-6-decyl-1,4-benzoquinone], the “working range (concentrations giving at least 50% cell viability)” value ([1]; 1 mM BSO) is reported as “up to 3 orders of magnitude”, the EC50 ([1]; Homo sapiens, Fibroblast, FRDA cells preincubated 24 h with compound, then 1 mM BSO, viability after further 48 h, read-out: EC50 value, rescue of FRDA cell death) is reported as 0.04 µM and the EC50 [1, 11] is reported as 0.04 µM.

Work on Vitamin E yielded an EC50 [1, 12] of 0.7 µM.
